# Experiments:
# C. albicans (NCPF 3281) = experiment: Activity against C. albicans, microbroth growth inhibition (OD530); assay type: cell-based, Candida albicans; details: 100 μM; active when inhibition >80%
# S. aureus (ATCC 9144) = experiment: Activity against S. aureus, microbroth growth inhibition (OD600); assay type: cell-based, Staphylococcus aureus; details: 100 μM; active when inhibition >80%
# [1] = tested on: A. baumannii (ATCC 17978) +PMBN; experiment: Activity against A. baumannii in the presence of PMBN (30 μg/mL); assay type: cell-based, Acinetobacter baumannii; details: 100 μM, active when inhibition >80%
# [2] = tested on: E. coli (NCTC 12923) +PMBN; experiment: Activity against E. coli in the presence of PMBN (30 μg/mL); assay type: cell-based, Escherichia coli; details: 100 μM, active when inhibition >80%
# [3] = Solubility by forward light-scatter (NEPHELOstar Plus); assay type: physicochemical; details: 1% DMSO in DPBS pH 7.1, 37 °C; for solubility (in words): 2 h
# P. falciparum = details: from originating P. falciparum / Open Source Malaria projects; cited from earlier work
# [4] = tested on: Mycobacterium avium (ATCC15796); experiment: Activity against Mycobacterium avium, luciferase reporter strain luminescence; details: 10 μM; active when inhibition >50%
# [5] = tested on: Mycobacterium abscessus (NCTC 14045); experiment: Activity against Mycobacterium abscessus, luciferase reporter strain luminescence; details: 10 μM; active when inhibition >50%
# [6] = tested on: SARS-CoV-2 nonstructural protein 12 (Nsp12); details: from originating SARS-CoV-2 Nsp12 project; cited from earlier work
# [7] = tested on: chikungunya virus nsp2 helicase; details: from originating chikungunya virus nsp2 helicase project; cited from earlier work
# DENV serotype 2 = details: from originating DENV RdRp project; reference not printed at the place; cited from earlier work
# Huh7 cells = details: reported after plate MHT-0001 was prepared, reference not printed at the place; cited from earlier work
# Gram-negative strain = experiment: Activity on a Gram-negative strain without PMBN (strain not given); assay type: cell-based; details: 100 μM, strain not named
smiles,measurement,setting,value
COc1ccc(-c2ccc(CNc3ccnc(S(=O)(=O)F)c3)s2)cc1 [RA-0020649-01],activity on C. albicans (in words),C. albicans (NCPF 3281),selective activity
COc1ccc2c(c1)nc(-c1c[nH]c3cc(N4CCOCC4)ccc13)c1[nH]ccc12 [WEL2.76],activity on S. aureus (in words),S. aureus (ATCC 9144),strong activity
same,activity on A. baumannii +PMBN (in words),[1],strong activity
same,activity on E. coli +PMBN (in words),[2],strong activity
same,activity on C. albicans (in words),C. albicans (NCPF 3281),no noticeable effect
same,solubility (in words),[3],poor
same,antiplasmodial activity / inhibition against P. falciparum (in words),P. falciparum,promising antiplasmodial activity
same,activity on M. avium (in words),[4],no noticeable effect
same,activity on M. abscessus (in words),[5],no noticeable effect
CC1=CC(=O)C=C(C)C1=NOS(=O)(=O)c1ccc(Cl)cc1 [RA-0001351],solubility (in words),[3],good solubility
same,potency on Nsp12 (in words),[6],potent
CC(C)c1cc(Nc2nc(N[C@@H](CO)C3CCCCC3)nc3[nH]ncc23)n[nH]1 [WYH-9],activity on E. coli +PMBN (in words),[2],narrow–spectrum activity
Oc1ccc(CN2CCN(c3ccccc3F)CC2)c2cccnc12 [RA-0020681],activity on C. albicans (in words),C. albicans (NCPF 3281),selective activity
same,solubility (in words),[3],poor
same,unwinding or ATPase inhibitory effect (in words),[7],no unwinding or ATPase inhibitory effect
Nc1ncnc2cc(-c3cccc(S(N)(=O)=O)c3)sc12 [YNW5-2],activity on E. coli +PMBN (in words),[2],narrow–spectrum activity
same,antiplasmodial activity / inhibition against P. falciparum (in words),P. falciparum,potent and selective inhibition
same,activity on M. avium (in words),[4],showed activity
Cc1ccc(C)c(N2CCN(C(=O)C3CCN(c4ncnc5c4sc4ncccc45)CC3)CC2)c1 [RA-0020572],antiviral activity on DENV serotype 2,DENV serotype 2,2.7 µM
O=C(Nc1ccccc1)C(Cl)C(=O)c1ccccc1 (centres unmarked) [RA-0020661-01],activity on A. baumannii +PMBN (in words),[1],narrow–spectrum activity
O=S(=O)(Nc1ccc(Oc2ccccc2)cc1)c1cccc(C(F)(F)F)c1 [EC055-1],activity on E. coli +PMBN (in words),[2],narrow–spectrum activity
COc1cc2nc(Nc3cc(C)[nH]n3)nc(Nc3cc(C)[nH]n3)c2cc1OC [MA20],activity on C. albicans (in words),C. albicans (NCPF 3281),selective activity
CC1(C)C2CCC1(C)C(OCC(O)CNC1CCCCC1)C2 (centres unmarked) [RA-0020564],activity on E. coli +PMBN (in words),[2]; listed as well G6,narrow–spectrum activity
same,solubility at 2 h,"[3]; DPBS with 1% DMSO, aqueous buffer, kinetic from dmso stock",> 100 µM
same,CC50,Huh7 cells,14.5 µM
COc1ccc2c(c1)nc(-c1c[nH]c3ccc(N4CCSCC4)cc13)c1[nH]ccc12 [WEL2.92a],activity on a Gram-negative strain (in words),Gram-negative strain,showed activity

# From publication PMC12928571, “Idler Compounds: A Simple Protocol for Openly Sharing Fridge Contents for Cross-Screening” (Journal of Medicinal Chemistry, 2026)
